Laboratory results from patent US9145375B2, “Quinazolinone compounds” (PRANA BIOTECHNOLOGY LIMITED, priority 2008, dated 2015).
“And” between values parts separate entries of the source, which are not always exact repeats. Equal entries are not always repeated.

Experiments:
CYP2C19 = biological target: T1, CYP2C19 (Homo sapiens, UniProt P33261); assay: CYP450 isoform inhibition, recombinant enzymes, analysis by LCMS: CYP2C19; assay type: in vitro ADME
T1 construct: using a specific substrate approach in human liver microsomes; from tissue; host or cells: human liver microsomes
Description: (§1) CYP450 Isoform Inhibition
(§2) Microsomes containing individual recombinant human CYP450 enzymes (Supersomes™) were incubated in the presence of a fixed concentration of a probe substrate that forms a fluorescent metabolite upon CYP450-mediated metabolism.
(§3) A known inhibitor of each CYP450 isoform was included in each assay as a positive control and its IC50 was compared to literature values for acceptance of the assay.
(§4) The inherent fluorescence of the test compound was examined under the specific assay conditions for each isoform before and after the fluorometric assay to identify any compound-specific interference due to the parent compound or metabolic products. If the background fluorescence in these samples increased due to compound-specific interference, then the CYP450 inhibition samples were quantified using LC/MS assay.

CYP1A2 = biological target: T2, CYP1A2 (Homo sapiens, UniProt P05177); assay: CYP450 isoform inhibition, recombinant enzymes, analysis by LCMS: CYP1A2; assay type: in vitro ADME
T2 construct: using a specific substrate approach in human liver microsomes; from tissue; host or cells: human liver microsomes
T2 sequence (P05177 1-516): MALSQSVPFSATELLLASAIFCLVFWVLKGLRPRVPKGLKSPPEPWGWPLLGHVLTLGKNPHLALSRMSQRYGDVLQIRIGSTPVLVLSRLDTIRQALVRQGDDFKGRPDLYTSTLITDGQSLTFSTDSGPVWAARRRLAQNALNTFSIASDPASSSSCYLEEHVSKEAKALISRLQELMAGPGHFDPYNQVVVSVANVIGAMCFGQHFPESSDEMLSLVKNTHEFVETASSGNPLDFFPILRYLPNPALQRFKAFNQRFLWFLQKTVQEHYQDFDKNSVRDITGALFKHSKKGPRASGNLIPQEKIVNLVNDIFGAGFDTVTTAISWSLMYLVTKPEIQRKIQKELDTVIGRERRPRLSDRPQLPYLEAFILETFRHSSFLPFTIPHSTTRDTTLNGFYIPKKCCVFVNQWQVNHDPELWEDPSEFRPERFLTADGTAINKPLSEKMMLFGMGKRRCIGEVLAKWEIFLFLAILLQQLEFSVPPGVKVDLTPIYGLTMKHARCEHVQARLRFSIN
Description: as §1, §2, §3, §4

[1] = Plasma Protein Binding, mouse; assay type: in vitro ADME
[2] = Plasma Protein Binding, rat; assay type: in vitro ADME
[3] = tested on: M17 human neuroblastoma cells; assay: Metal Uptake Assay (metal transport); assay type: cell-based; conditions: 10 μM Cu + 10 μM compound, 5 hours
Description: Assay 3. Metal Uptake Assay
M17 human neuroblastoma cells are plated out on 6 well plates and left overnight. Enough cells are added to give approximately 70% confluent the following day of the experiment. Test compounds are added to media and mixed with equi-molar amounts of CuCl2 solution. A=10 μM Cu+10 μM MPAC; B=10 μM Cu+10 μM MPAC.
Cells are incubated in 1 ml of media/MPAC/Cu mix for 5 hours at 37° C. At the end of the incubation the media is removed with a vacuum aspirator and 1 ml of PBS added to dislodge the cells. Cells are then put into Eppendorf tubes and pelleted. The PBS is removed and the remaining cell pellets are frozen at −20 C.
The cell pellets are prepared as follows:
Received cell pellets of similar levels in 1.5 ml microfuge tubes. Added 50 μl of concentrated Nitric Acid (Aristar, BDH) to each cell pellet and allowed them to digest over night. Heated the samples for 20 min at 90° C. to complete the digestion. The volume of each sample was reduced to ˜45 ul after digestion. Added 1 ml of the 1% Nitric Acid diluent to each sample. (referred to as the “preparation solution” samples).
Measurements were made using a Varian UltraMass ICPMS instrument under operating conditions suitable for routine multi-element analysis.
The instrument was calibrated using Blank, 10, 50 and 100 ppb of a certified multi-element ICPMS standard solution (ICP-MS—CAI2-1, Accustandard) for Fe, Cu and Zn in 1% nitric acid. Used an certified internal standard solution containing 100 ppb Yttrium (Y 89) as an internal control (ICP-MS—IS-MIX1-1, Accustandard).

M17 = assay: Cytotox (% viable), cells marked M17; assay type: cell-based, human; conditions: repeat values given
Neuronal cortical cells = assay: Cytotox (% viable); Primary Neuronal Cells Neurotoxicity Assay; assay type: cell-based, mouse; conditions: cell type not given, repeat values given
Description: Assay 2 (a). Primary Neuronal Cells Neurotoxicity Assays
Cortical cultures were prepared as previously described (White et al., 1998). Embryonic day 14 BL6Jx129sv mouse cortices were removed, dissected free of meninges and dissociated in 0.025% (wt/vol) trypsin. Dissociated cells were plated in 48 well culture plates at a density of 2×10^6 cells/mL in MEM with 25% (vol/vol) FCS and 5% (vol/vol) HS and incubated at 37° C., 2 hrs. Media was then replaced with Neurobasal media (Invitrogen Life Technologies) and B27 supplements (Invitrogen Life Technologies). Cultures were maintained at 37° C. in 5% CO2. Prior to experimentation, the culture medium was replaced with Neurobasal media and B27 minus antioxidants (Invitrogen Life Technologies).
Neuronal cortical cells were cultured for five days as per Assay 2 in NB media and B27 supplement.
On day six the test compounds were added to the neuronal cell cultures in NB media and B27 supplement minus antioxidants.
Test compounds were dissolved in 100% DMSO to a concentration of 2.5 mM (10 mM if excess compound was weighed out per vial—then diluted to 2.5 mM). 2.5 mM stock solution was serially diluted 1 in 10 to give working solutions of 250 uM, 25 uM, 2.5 uM. Test compounds were not added directly to cells, instead they were added to a 48 well ‘Drug Plate’ as comprised below: • Preparation of “Drug Plate”:
Well 1: 576 ul NB+B27 (no antioxidant)*+24 ul 2.5 uM test compound
Well 2: 576 ul NB+B27 (no antioxidant)+24 μl 25 uM test compound
Well 3: 576 ul NB+B27 (no antioxidant)+24 ul 250 uM test compound
Well 4: 576 ul NB+B27 (no antioxidant)+24 ul 2.5 uM test compound
Well 5: 576 ul NB+B27 (no antioxidant)+24 ul 25 uM test compound
Well 6: 576 ul NB+B27 (no antioxidant)+24 ul 250 uM test compound
Well 7: 576 ul NB+B27 (no antioxidant)+24 ul test compound diluent**
Well 8: 600 ul NB+B27 (no antioxidant)
The Drug Plate was incubated at 37° C. for 15 mins. 200 ul of each well was added in triplicate to the corresponding cell plate. The cell plate was incubated at 37° C., for 4 days, (2 compounds are tested on each plate of cells).
*NB media and B27 (no antioxidants),
**PBT diluent 10% DMSO in NB+1327 (no antioxidants)
On completion of the assay, 1/10 volume MTS was added per well of plate (ie 25 ul/250 ul). The plates were incubated at 37° C. for 2 hrs, and then absorbance was read at 560 nm.

T1 sequence (P33261 whole entry, canonical isoform): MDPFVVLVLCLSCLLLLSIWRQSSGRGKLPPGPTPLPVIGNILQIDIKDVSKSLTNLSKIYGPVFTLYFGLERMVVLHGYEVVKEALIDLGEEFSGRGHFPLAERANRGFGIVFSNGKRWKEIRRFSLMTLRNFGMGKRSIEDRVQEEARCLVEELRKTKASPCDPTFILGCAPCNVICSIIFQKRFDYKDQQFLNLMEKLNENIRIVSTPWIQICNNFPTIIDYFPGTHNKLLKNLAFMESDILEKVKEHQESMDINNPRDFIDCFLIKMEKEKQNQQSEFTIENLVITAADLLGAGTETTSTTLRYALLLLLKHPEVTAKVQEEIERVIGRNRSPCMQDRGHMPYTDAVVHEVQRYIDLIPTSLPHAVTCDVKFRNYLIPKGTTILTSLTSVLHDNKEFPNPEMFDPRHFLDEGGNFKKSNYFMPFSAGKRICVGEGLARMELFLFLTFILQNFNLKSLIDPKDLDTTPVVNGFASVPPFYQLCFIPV

Compound | Metal transport [3] | Cytotox (% viable at 1 uM) (Neuronal cortical cells) | Cytotox (% viable at 10 uM) (Neuronal cortical cells) | also measured
CNCc1nc2c(O)c(Cl)cc(Cl)c2c(=O)n1C [Compound F4161] |  |  |  | IC50 (CYP2C19): > 40 µM; IC50 (CYP1A2): 25.7 µM
CCn1c(CN(C)C)nc2c(O)c(Cl)cc(Cl)c2c1=O.Cl [Compound F4268] |  |  |  | fraction unbound [1]: 0.178 to 0.203; fraction unbound [2]: 0.052 to 0.055
CN(C)Cc1nc2c(O)c(Cl)cc(Cl)c2c(=O)n1C [Compound F4269, 5,7-Dichloro-2-(dimethylamino)methyl-8-hydroxy-3-methylquinazolin-4(3H)-one] |  |  |  | fraction unbound [1]: 0.582 to 0.658; fraction unbound [2]: 0.074 to 0.116
CCN(CC)Cc1nc2c(O)c(Cl)cc(Cl)c2c(=O)n1CC1CC1 [Compound F4385] | Metal transport 9% |  |  | Cytotox (% viable at 1 uM) (M17): 99.2% and 105.0%; Cytotox (% viable at 10 uM) (M17; 10 uM): 97.7%
C#CCN(C)Cc1nc2c(O)c(Cl)cc(Cl)c2c(=O)n1CC1CC1 [Compound F4387] | Metal transport 111% |  |  | Cytotox (% viable at 1 uM) (M17): 104.0% and 92.7% and 95.9% and 100.7%
Br.CCn1c(CNC)nc2c(O)c(Cl)cc(Cl)c2c1=O [Compound F4486] | Metal transport 14% | 97.9% and 101.4% | 52.2% and 43.3% | 
CCNCc1nc2c(O)c(Cl)cc(Cl)c2c(=O)n1CC [Compound F4495] | Metal transport 8% | 89.3% and 112.8% | 47.9% and 57.1% | 
Br.CCNCc1nc2c(O)c(Cl)cc(Cl)c2c(=O)n1C [Compound F4496] | Metal transport 7% | 102.7% and 114.6% | 59.4% and 101.2% | 
